Here are results for four compounds from US8338431B2, “Phosphodiesterase inhibitors” (Leo Pharma A/S, priority 2007, dated 2012).

Assay [1] has as its target Human recombinant PDE4 (Genbank accession no NM—006203) (Homo sapiens, UniProt Q08499). In words: PDE4 Assay (SPA, cleavage of cAMP). It counts as biochemical. The settings on record: human recombinant PDE4, 1 hour incubation, cAMP 1×10^-5M, test compound up to 10 μM; read-out: IC50 (PDE4). The protocol:
Human recombinant PDE4 (Genbank accession no NM_006203) was incubated for 1 hour, with the test compound at concentrations up to 10 μM, with cAMP (1×10^-5M), and with a low amount (0.021 MBq) of radioactively labelled cAMP. At the end of the incubation, the cleavage of the substrate was evaluated by the binding of the AMP product to SPA beads, which generate […] when bound to the radioactive tracer. The AMP product inhibited the binding of the radioactive tracer to the beads, and the luminescent signal was competed. The results were calculated as the molar concentrations resulting in 50% inhibition of the substrate cleavage compared to controls samples, and are expressed as IC50 (M).

Assay [2] has as its system TNF-α release from human peripheral blood mononuclear cells (PBMC). As to the kind of experiment: TNF-α Release in LPS stimulated PBMC. It counts as cell-based. The settings on record: 30 minutes pre-incubation, stimulated 18 hours with lipopolysaccharide, TNF-α in supernatant by enzyme immunoassay. The protocol:
Human peripheral blood mononuclear cells (PBMC) were isolated from buffy coats. The blood is mixed with saline at a ratio of 1:1, and the PBMC were isolated using Lymphoprep Tubes™ (Nycomed, Norway). The PBMC were suspended in RPMI1640 with 2% foetal calf serum (FCS), pen/strep and 2 mM L-glutamine at a concentration of […]. The cells were pre-incubated for 30 minutes with the test compounds in 96 well tissue culture plates and stimulated for 18 hours with lipopolysaccharide […] (Sigma). The level of TNF-α was measured in the culture supernatant by enzyme immunoassays using primary and secondary biotinylated antibodies from R&D systems. Results are expressed as IC50 values calculated from inhibition curves using as positive controls the secretion in LPS stimulated wells and as negative controls the secretion in unstimulated cells.

Each structure is given as a SMILES string.

Sequence of Human recombinant PDE4 (Genbank accession no NM—006203) (Q08499 1-673 isoform Q08499-2): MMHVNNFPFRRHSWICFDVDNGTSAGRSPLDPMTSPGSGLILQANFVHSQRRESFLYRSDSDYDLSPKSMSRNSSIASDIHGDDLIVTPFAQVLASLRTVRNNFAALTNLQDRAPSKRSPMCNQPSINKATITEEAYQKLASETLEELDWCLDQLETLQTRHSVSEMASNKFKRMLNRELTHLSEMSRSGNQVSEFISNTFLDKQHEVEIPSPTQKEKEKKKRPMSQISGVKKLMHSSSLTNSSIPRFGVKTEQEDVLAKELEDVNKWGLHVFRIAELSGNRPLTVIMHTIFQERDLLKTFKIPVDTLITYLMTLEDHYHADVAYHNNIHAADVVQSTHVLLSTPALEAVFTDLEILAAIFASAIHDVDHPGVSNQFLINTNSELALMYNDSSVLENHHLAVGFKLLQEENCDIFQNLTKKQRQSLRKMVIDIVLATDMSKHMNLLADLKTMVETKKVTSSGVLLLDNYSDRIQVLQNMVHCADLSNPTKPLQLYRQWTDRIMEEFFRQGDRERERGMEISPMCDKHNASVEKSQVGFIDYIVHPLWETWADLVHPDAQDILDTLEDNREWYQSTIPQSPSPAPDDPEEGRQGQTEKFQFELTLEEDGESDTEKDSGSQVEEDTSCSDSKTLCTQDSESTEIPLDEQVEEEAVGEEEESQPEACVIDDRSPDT

`COc1ccc(C(=O)Cc2c(Cl)c[n+]([O-])cc2Cl)c2c1OC1(CCOCC1)O2` [Compound 103, 2-(3,5-Dichloro-1-oxido-pyridine-4-yl)-1-(7-methoxy-2′,5′,6′-tetrahydro-spiro[1,3-benzodioxole-2,4′-(4H)-pyran]-4-yl)ethanone]: the values for the 50% inhibitory concentration (IC50) in assay [1] and in assay [2] were 26 nM and 23 nM, respectively.
In the case of `COc1ccc(C(=O)Cc2c(Cl)cncc2Cl)c2c1OC1(CCN(S(C)(=O)=O)CC1)O2` [Compound 107, 2-(3,5-Dichloropyridine-4-yl)-1-(7-methoxy-1′-[methylsulfonyl]-spiro[1,3-benzodioxole-2,4′-piperidine]-4-yl)ethanone], the concentration for half-maximal inhibition (IC50) (usually the concentration needed to halve the response being measured) in assay [1] stood at 590 nM; in assay [2] it was 910 nM.
Turning to `COc1ccc(C(=O)Cc2c(Cl)cncc2Cl)c2c1OC1(CCSCC1)O2` [Compound 110, 2-(3,5-Dichloropyridine-4-yl)-1-(7-methoxy-2′,3′,5′,6′-tetrahydro-spiro[1,3-benzodioxole-2,4′-(4H)-thiopyran]-4-yl)ethanone], the IC50 in assay [1] came to 11 nM; in assay [2] it was 17 nM.
For the compound `COc1ccc(C(=O)Cc2c(Cl)c[n+]([O-])cc2Cl)c2c1OC1(CCS(=O)(=O)CC1)O2` [Compound 113, 2-(3,5-Dichloro-1-oxido-pyridine-4-yl)-1-(7-methoxy-2′,3′,5′,6′-tetrahydro-spiro[1,3-benzodioxole-2,4′-(4H)-thiopyran-1′,1′-dioxide]-4-yl)ethanone], the values for the IC50 in assay [1] and in assay [2] were 53 nM and 82 nM, respectively.
